The target of series [1] is recombinant HIV-1 RT enzyme (p66/51 dimer) (Human immunodeficiency virus type 1 group M subtype B, UniProt P03366). Kind of series: RT inhibition assay, poly. It counts as biochemical. The settings on record: for HIV-1 RT inhibition (in words): poly(rC)·oligo(dG) as template primer.
The conditions of series [2]: cited from earlier work.

Each structure is given as a SMILES string.

We go through eight compounds from PMC2676060 (European journal of medicinal chemistry, 2008).

For the compound `COc1noc2c(C)cc(C(=CCCN3CCOC3=O)c3cc(C)c4onc(OC)c4c3)cc12` [Compound 7, 3-[4,4-Bis-(3-methoxy-7-methyl-benzo[d]isoxazol-5-yl)-but-3-enyl]-oxazolidin-2-one], in series [1], the “HIV-1 RT inhibition (in words)” value is given as “active”. With `COC(=O)CCC/C=C(/c1cc(C)c2onc(OC)c2c1)c1cc(C)c2oc(=O)n(C)c2c1` [Compound 2], the “stability in rat blood plasma (in words)” value in series [2] is “unstable”. For the compound `COC(=O)c1cc(/C(=C/CCN2CCOC2=O)c2cc(C)c3onc(OC)c3c2)cc(C)c1OC` [Compound 5, (E)-2-Methoxy-5-[1-(3-methoxy-7-methylbenzo[d]isoxazol-5-yl)-4-(2-oxoxazolidin-3-yl)-but-1-enyl]-3-methylbenzoic acid methyl ester], the “HIV-1 RT inhibition (in words)” value in series [1] is recorded as “much less active”. Consider `COC(=O)CCC/C=C(\c1cc(F)cc(C(F)(F)F)c1)c1cc(C)c2onc(OC)c2c1` [Compound 1], for which the IC50 (as a rule, the concentration needed to halve the response being measured) in series [1] turned out to be 900 nM.

For the compound `COC(=O)c1cc(/C(=C/CCN2CCOC2=O)c2cc(C)c3onc(OC)c3c2)cc(Cl)c1OC` [Compound 6, (E)-3-Chloro-2-methoxy-5-[1-(3-methoxy-7-methyl-benzo[d]isoxazol-5-yl)-4-(2-oxoxazolidin-3-yl)-but-1-enyl]-benzoic acid methyl ester], the “HIV-1 RT inhibition (in words)” value in series [1] was “much less active”. Take `COc1noc2c(C)cc(/C(=C\CCN3CCOC3=O)c3cc(C)c4oc(=O)n(C)c4c3)cc12` [Compound 8, (E)-5-[1-(3-Methoxy-7-methylbenzo[d]isoxazol-5-yl)-4-(2-oxoxazolidin-3-yl)-but-1-enyl]-3,7-dimethyl-3H-benzoxazol-2-one]: in series [1], the “HIV-1 RT inhibition (in words)” value is listed as “much less active”. Take `COc1noc2c(C)cc(/C(=C\CCN3CCOC3=O)c3cccc(C#N)c3)cc12` [Compound 9, (Z)-3-[1-(3-Methoxy-7-methylbenzo[d]isoxazol-5-yl)-4-(2-oxoxazolidin-3-yl)-but-1-enyl]-benzonitrile]: in series [1], the “HIV-1 RT inhibition (in words)” value is “much less active”. For `COC(=O)CCC/C=C(\c1cc(C)c(OC)c(C(=O)OC)c1)c1cc(C)c2onc(OC)c2c1` [Compound 3, (Z)-2-Methoxy-5-[5-methoxycarbonyl-1-(3-methoxy-7-methylbenzo[d]isoxazol-5-yl)-pent-1-enyl]-3-methylbenzoic acid methyl ester], the IC50 in series [1] stood at 910 nM.
